Source: patent US7704985B2, “Treatment of irritable bowel syndrome and related bowel diseases” (The Board of Regents of the University of Texas System, priority 2002, dated 2010)

Test system: acetic acid sensitized rats
Assay: Behavioral response to graded colorectal distention (CRD) in neonatally acetic acid sensitized rats
Type: in vivo, Sprague Dawley rat
Conditions: oral, 1.5 mg/kg body weight in corn oil daily for two weeks; graded CRD 10 mm-80 mm Hg; behavioral response grading 0-3
Method: Neonatal sensitization with acetic acid: Description of the model. It was previously shown that transient noxious stimulation of the colon during postnatal development can cause long-lasting hyperalgesia, despite complete resolution of the initiating event. In a variation of this technique, 0.3% acetic acid was instilled into the rectum of rats at postnatal days 7-10. […] By contrast, when rats are treated with acetic acid as adults, and tested after a similar period of time, no sensitization is observed. Sprague Dawley rat pups were sensitized on neonatal day 10 with acetic acid. In brief, a thin polyethylene tubing (P-90 was introduced gently into the rectum 2 cm from the anus. 0.2 ml of 0.5% glacial acetic acid in normal saline was injected through the tube into the colo rectum. The pups were allowed to grow into adults. When the rats were approximately eight weeks old they were weighed and their behavioral responses to graded (10 mm-80 mm Hg) colo rectal distention (CRD) was determined. Under light brevital (1%) anesthesia a polyethelene tube connected to a balloon (made out of a glove finger) was guided into the colo-rectum ˜8 cms from the rectum and the tube was fastened to the tail. The open end was connected to the barostat device. The rat was put into a rat restrainer allowing limited movement. […]

SMILES: CCC(=O)OCC(=O)[C@@]1(OC(=O)CC)[C@@H](C)C[C@H]2[C@@H]3CCC4=CC(=O)C=C[C@]4(C)[C@@]3(Cl)[C@@H](O)C[C@@]21C [beclamethasone dipropionate]
- pain threshold to graded CRD compared to the vehicle treated group: higher pain threshold
